Results reported in patent US12030877B2, “Prostaglandin E synthase inhibitors and methods for utilizing the same” (University of Kentucky Research Foundation, priority 2016, dated 2024).

Target: T1, mPGES-1 Mouse enzyme (Mus musculus, UniProt Q9JM51)
T1 construct: made in house; host or cells: FreeStyle 293-F cells, crude microsomal preparation
T1 sequence (Q9JM51 1-153): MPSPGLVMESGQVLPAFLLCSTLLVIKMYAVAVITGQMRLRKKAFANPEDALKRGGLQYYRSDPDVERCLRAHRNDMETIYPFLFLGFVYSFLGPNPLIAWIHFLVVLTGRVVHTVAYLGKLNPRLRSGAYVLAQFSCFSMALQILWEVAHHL
Test: mPGES-1 enzyme activity assay (PGE2 enzyme immunoassay), mouse enzyme
Assay type: biochemical
Conditions: IC50 against mPGES-1, Mouse enzyme, recombinant microsomal enzyme; means ± SD, triplicate
Method: (§1) Studies were conducted to characterize the inhibitory activity against recombinant mPGES-1 of the compounds synthesized in accordance with Examples 1-4, and disclosed herein.
(§2) Briefly, FreeStyle 293-F cells were cultured following manufacturer's manual in FreeStyle 293 expression medium on orbit rotate shaker in 8% CO2 incubator at 37° C. Cells were transfected with 1.5 μg/mL of mPGES-1/pcDNA3 construct using FreeStyle Max reagent at a cell density of 1×10^6 for 2 days. Transfected cells were collected, washed, and sonicated in TSES buffer (15 mM Tris-HCl, pH 8.0 plus 0.25 M sucrose, 0.1 mM EDTA and 1 mM DTT) on ice. The broken cells were first centrifuged at 12,500×g for 10 min. The supernatant was further centrifuged at 105,000×g for 1 hr at 4° C. The pellet was washed and homogenized in PBS buffer. The crude microsomal mPGES-1 preparation was aliquoted and stored at −80° C. The crude protein concentration was 8 mg/mL.
(§3) The enzyme activity assays were performed on ice in 1.5 ml microfuge tubes by using the expressed mPGES-1. The reaction mixture contained: 0.2 M Na2HPO4/NaH2PO4, pH 7.2, 10 μL; 0.1 M GSH, 2.5 μL; diluted microsomal enzyme (80 μg/mL), 1 μL; PGH2 (0.31 mM in DMF), 5 μL; 1 μL inhibitor; and H2O in a final reaction volume of 100 μL. PGH2 was stored in dry ice and used to initiate the reaction.
(§4) Compounds were incubated with the enzyme for 15 min at room temperature before the addition of cold PGH2 (1 μM final) to initiate the enzyme reaction. After 30 s, 10 μL of SnCl2 (40 mg/mL) in ethanol was added to stop the reaction. The nonenzymatic conversion of PGH2 to PGE2 was performed in the same buffer devoid of enzyme. The reaction mixture was placed on ice until PGE2 production was determined by the PGE2 enzyme immunoassay as described earlier. IC50 values of the inhibitors were calculated by using the GraphPad Prism 4.0 program. The results are set forth in the tables provided in Examples 7-10.

| Compound | IC50 |
| --- | --- |
| CCCCCCCCOc1ccc(-c2nn(-c3ccccc3)cc2C=C2C(=O)NC(=O)NC2=O)cc1 [VI-05] | 2.16 ± 0.188 µM |
| CCCCOc1ccc(-c2nn(-c3ccccc3)cc2C=C2C(=O)NC(=O)NC2=O)cc1 [VI-02] | 2.57 ± 0.628 µM |

Same assay, conditions: compound at a concentration of 10 μM; read-out: % inhibition of the compound against mPGES-1, Mouse enzyme

| Compound | inhibition at 10 µM |
| --- | --- |
| O=C(O)CN1C(=O)S/C(=C2\C(=O)Nc3ccc(-c4ccccc4)cc32)C1=O [II-23] | 63% |
| CCCCCN1C(=O)/C(=C2\SC(=O)N(CC(=O)O)C2=O)c2ccccc21 [II-12] | 35% |
| CCOc1ccc(-c2nn(-c3ccc(Cl)cc3)cc2C=C2C(=O)NC(=O)NC2=O)cc1 [VI-01] | 28% |

Target: T2, mPGES-1 (Homo sapiens, UniProt O14684)
T2 sequence (O14684 1-152): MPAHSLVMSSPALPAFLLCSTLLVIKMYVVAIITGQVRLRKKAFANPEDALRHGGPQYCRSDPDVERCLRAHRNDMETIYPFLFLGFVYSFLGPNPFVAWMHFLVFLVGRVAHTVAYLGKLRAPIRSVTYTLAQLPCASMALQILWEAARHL
Test: mPGES-1 enzyme activity assay (PGE2 enzyme immunoassay), human enzyme
Assay type: biochemical
Parameters: made in house; host or cells: FreeStyle 293-F cells, crude microsomal preparation
Conditions: IC50 against mPGES-1, Human enzyme, recombinant microsomal enzyme; means ± SD, triplicate
Method: as §1, §2, §3, §4

| Compound | IC50 |
| --- | --- |
| CCCCCCCCOc1ccc(-c2nn(-c3ccccc3)cc2C=C2C(=O)NC(=O)NC2=O)cc1 [VI-05] | 0.323 ± 0.052 µM |
| O=C1NC(=O)C(=Cc2ccc(OCCCC3CCCCC3)c(Cl)c2)C(=O)N1 [Compound I-30] | 0.078 ± 0.013 µM |
| O=C1NC(=O)C(=Cc2ccc(OCCCC3CCCCC3)c(Cl)c2)C(=O)N1 [Compound I-24] | 0.11 ± 0.021 µM |
| O=C1NC(=O)C(=Cc2ccc(OCCCCC3CCCCC3)c([N+](=O)[O-])c2)C(=O)N1 [Compound I-23] | 0.053 ± 0.014 µM |
| O=C1NC(=O)C(=Cc2ccc(OCCCC3CCCCC3)c(Br)c2)C(=O)N1 [Compound I-25] | 0.104 ± 0.025 µM |
| O=C1NC(=O)C(=Cc2ccc(OCCCCC3CCCCC3)c([N+](=O)[O-])c2)C(=O)N1 [Compound I-08] | 0.067 ± 0.02 µM |
| O=C1NC(=O)C(=Cc2ccc(OCCCC3CCCCC3)c(Br)c2)C(=O)N1 [Compound I-31] | 0.112 ± 0.013 µM |
| O=C1NC(=O)C(=Cc2ccc(OCCCCC3CCCCC3)c(Br)c2)C(=O)N1 [Compound I-22] | 0.02 ± 0.004 µM |
| O=C1NC(=O)C(=Cc2ccc(OCCCCC3CCCCC3)c(Br)c2)C(=O)N1 [Compound I-03] | 0.045 ± 0.008 µM |

Same assay, conditions: compound at a concentration of 10 μM; read-out: % inhibition of the compound against mPGES-1, Human enzyme

| Compound | inhibition at 10 µM |
| --- | --- |
| CCCCCCCCCCOc1ccc(-c2nn(-c3ccccc3)cc2C=C(C#N)C#N)cc1 [VII-27] | 49% |
| CCCCCCCCCCOc1ccc(-c2nn(-c3ccc(Cl)cc3)cc2C=C(C#N)C#N)cc1 [VII-28] | 47% |
| CCCCCCOc1ccc(-c2nn(-c3ccc(Cl)cc3)cc2/C=C(/C#N)C(=O)OCC)cc1 [VII-04] | 37% |
| CCCCOc1ccc(-c2nn(-c3ccc(Cl)cc3)cc2C=C(C#N)C#N)cc1 [VII-23] | 77% |
| CCCCOc1ccc(-c2nn(-c3ccccc3)cc2C=C(C#N)C#N)cc1 [VII-22] | 54% |
| CCCCCCCCOc1ccc(-c2nn(-c3ccccc3)cc2C=C(C#N)C#N)cc1 [VII-25] | 55% |
| CCOC(=O)/C(C#N)=C\c1cn(-c2ccc(Cl)cc2)nc1-c1ccc(OCC)cc1 [VII-03] | 24% |
| CCCCOc1ccc(-c2nn(-c3ccccc3)cc2C=C2C(=O)N(C)C(=O)N(C)C2=O)cc1 [VI-19] | 30% |
| CCCCCCCCOc1ccc(-c2nn(-c3ccccc3)cc2C=C2C(=O)N(C)C(=O)N(C)C2=O)cc1 [VI-21] | 16% |
| CCCCCCCCOc1ccc(-c2nn(-c3ccc(Cl)cc3)cc2C=C2C(=O)N(C)C(=O)N(C)C2=O)cc1 [VI-22] | 6.8% |
| CCCCOc1ccc(-c2nn(-c3ccc(Cl)cc3)cc2C=C2C(=O)N(C)C(=O)N(C)C2=O)cc1 [VI-20] | 29% |
| CCCCCCCCCCOc1ccc(-c2nn(-c3ccc(Cl)cc3)cc2C=C2C(=O)N(C)C(=O)N(C)C2=O)cc1 [VI-24] | 0% |
| CCCCCCCCOc1ccc(-c2nn(-c3ccc(Cl)cc3)cc2C=C(C#N)C#N)cc1 [VII-26] | 52% |
| CCCCCCCCCCOc1ccc(-c2nn(-c3ccccc3)cc2C=C2C(=O)N(C)C(=O)N(C)C2=O)cc1 [VI-23] | 0% |

Same assay, conditions: recombinant microsomal enzyme; means ± SD, triplicate; read-out: IC50 against mPGES-1, Human enzyme

| Compound | IC50 |
| --- | --- |
| O=C(O)CN1C(=O)S/C(=C2\C(=O)Nc3ccc(-c4ccccc4)cc32)C1=O [II-23] | 8.02 ± 1.05 µM |
| CCCCCN1C(=O)/C(=C2\SC(=O)N(CC(=O)O)C2=O)c2ccccc21 [II-12] | 1.66 ± 0.168 µM |
| CCOc1ccc(-c2nn(-c3ccc(Cl)cc3)cc2C=C2C(=O)NC(=O)NC2=O)cc1 [VI-01] | 0.265 ± 0.096 µM |
| CCCCOc1ccc(-c2nn(-c3ccccc3)cc2C=C2C(=O)NC(=O)NC2=O)cc1 [VI-02] | 0.212 ± 0.034 µM |
| CCCCCCCOc1c(Br)cc(/C=C(\C#N)C(N)=O)cc1OC [Compound V-16] | 1.3 ± 0.232 µM |
| CCCCOc1ccc(/C=C(\C#N)C(N)=O)cc1OC [Compound V-37] | 5.41 ± 0.818 µM |
| CCCCCCCOc1ccc(/C=C(\C#N)C(N)=O)cc1 [Compound V-11] | 0.376 ± 0.031 µM |
| CCCCCCCCOc1ccc(/C=C(\C#N)C(=O)OCC)cc1[N+](=O)[O-] [Compound V-03] | 4.75 ± 0.489 µM |
| CCCCCCCCCCOc1ccc(/C=C(\C#N)C(N)=O)cc1OC [Compound V-28] | 4.37 ± 0.915 µM |
| CCCCCCCOc1c(Br)cc(/C=C(\C#N)C(=O)OCC)cc1OC [Compound V-14] | 1.01 ± 0.262 µM |
| CCCCCCCOc1ccc(/C=C(\C#N)C(=O)OCC)cc1 [Compound V-09] | 3.52 ± 0.471 µM |
| CCCCCOc1ccc(C=C(C#N)C#N)cc1OC [Compound V-42] | 0.439 ± 0.104 µM |
| CCCCCCCCOc1c(Br)cc(/C=C(\C#N)C(=O)OCC)cc1OC [Compound V-17] | 1.87 ± 0.35 µM |
| CCCCCCCCCOc1ccc(/C=C(\C#N)C(N)=O)cc1OC [Compound V-30] | 1.1 ± 0.212 µM |
| CCCCCCCOc1ccc(/C=C(\C#N)C(=O)O)cc1OC [Compound V-34] | 0.531 ± 0.116 µM |
| CCCCCCOc1c(Br)cc(/C=C(\C#N)C(=O)OCC)cc1OC [Compound V-12] | 0.998 ± 0.196 µM |
| CCCCCCOc1ccc(-c2nn(-c3ccc(Cl)cc3)cc2/C=C2\SC(=S)NC2=O)cc1 [VII-09] | 1.73 ± 0.666 µM |
| CCOc1ccc(-c2nn(-c3ccc(Cl)cc3)cc2/C=C2\SC(=O)NC2=O)cc1 [VII-05] | 1.59 ± 0.557 µM |
| CCCCCCCCCCOc1ccc(/C=C(\C#N)C(=O)OCC)cc1OC [Compound V-26] | 0.905 ± 0.177 µM |
| CCCCCCOc1ccc(/C=C(\C#N)C(=O)OCC)cc1 [Compound V-08] | 5.24 ± 0.429 µM |
| CCCCCOc1ccc(/C=C/[N+](=O)[O-])cc1OC [Compound V-43] | 2.77 ± 0.577 µM |

| Compound | IC50 |
| --- | --- |
| CCCCCCCCCOc1ccc(/C=C(\C#N)C(=O)O)cc1OC [Compound V-31] | 0.356 ± 0.123 µM |
| CCOc1ccc(-c2nn(-c3ccc(Cl)cc3)cc2/C=C2\SC(=S)NC2=O)cc1 [VII-08] | 1.04 ± 0.293 µM |
| CCCCCCOc1ccc(/C=C(\C#N)C(=O)O)cc1OC [Compound V-25] | 0.242 ± 0.03 µM |
| CCCCCCCOc1ccc(/C=C(\C#N)C(N)=O)cc1OC [Compound V-33] | 2.21 ± 0.45 µM |
| CCCCCCOc1ccc(/C=C(\C#N)C(=O)OCC)cc1[N+](=O)[O-] [Compound V-01] | 8.74 ± 1.17 µM |
| CCCCCOc1ccc(/C=C(\C#N)C(=O)O)cc1OC [Compound V-44] | 0.456 ± 0.042 µM |
| COc1cc(/C=C(\C#N)C(N)=O)ccc1OCC1CCCCC1 [Compound V-40] | 1.46 ± 0.119 µM |
| CCCCCCOc1ccc(C=C(C#N)C#N)cc1OC [Compound V-24] | 0.294 ± 0.06 µM |
| CCCCCCCOc1ccc(/C=C(\C#N)C(=O)OCC)cc1OC [Compound V-32] | 4.28 ± 1.4 µM |
| CCOC(=O)/C(C#N)=C/c1ccc(OCC2CCCCC2)c(OC)c1 [Compound V-38] | 10.8 ± 1.04 µM |
| CCCCCOc1ccc(/C=C(\C#N)C(=O)OCC)cc1OC [Compound V-41] | 4.14 ± 0.858 µM |
| CCCCCOc1ccc(/C=C(\C#N)C(=O)OCC)cc1 [Compound V-07] | 6.22 ± 0.502 µM |
| CCCCCCCCCOc1ccc(/C=C(\C#N)C(=O)OCC)cc1OC [Compound V-29] | 2.88 ± 0.687 µM |
| CCCCCCCCCCCCCCCCCCOc1c(Br)cc(/C=C(\C#N)C(=O)OCC)cc1OC [Compound V-19] | 2.27 ± 0.35 µM |
| CCCCCCCOc1ccc(/C=C(\C#N)C(=O)OCC)cc1[N+](=O)[O-] [Compound V-02] | 4.82 ± 0.511 µM |
| CCCCOc1ccc(/C=C(\C#N)C(=O)O)cc1OC [Compound V-36] | 0.541 ± 0.082 µM |
| CCCCOc1ccc(/C=C(\C#N)C(=O)OCC)cc1OC [Compound V-21] | 5.63 ± 0.987 µM |
| CCCCCCOc1ccc(-c2nn(-c3ccc(Cl)cc3)cc2/C=C2\SC(=O)NC2=O)cc1 [VII-06] | 1.39 ± 0.303 µM |
| CCCCCCOc1ccc(/C=C(\C#N)C(=O)OCC)cc1OC [Compound V-23] | 1.45 ± 0.192 µM |
| COc1cc(C=C(C#N)C#N)ccc1OCC1CCCCC1 [Compound V-39] | 1.45 ± 0.152 µM |
| O=C1NC(=O)/C(=C/c2cn(-c3ccccc3)nc2-c2ccccc2)S1 [VII-07] | 4.93 ± 1.16 µM |
